Some test systems named below: 786-0 renal; A498 renal; HCT-116 colon; HT29 colon; MDA-MB-231 breast; NCI-H23 lung; RPMI-8226 leukemia; RXF 393 renal; SF-295 CNS; SK-MEL-5 melanoma; SW-620 colon; TK-10 renal; UACC-257 melanoma; UACC-62 melanoma.
What all share (assay): NCI-60 cell line screen, 48 h

For ten compounds, TGI results are on record in PubChem BioAssay (NCI).

SMILES strings stand for the structures.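 Test compounds were applied to cells in 96-well plates for 48 hours at 5 doses. The concentration for full growth arrest is given as TGI.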 Some results are limits rather than exact numbers.

As for `O=C(O)CSCC(=O)Nc1ccc2cccc3c2c1CC3`, the TGI in the experiment with 786-0 renal, with A498 renal, in the experiment with HCT-116 colon, in the experiment with HT29 colon, in the experiment on MDA-MB-231 breast and in the experiment on NCI-H23 lung was > 100 µM each time. Also, the TGI in the experiment with RPMI-8226 leukemia, in the experiment with RXF 393 renal, in the experiment with SF-295 CNS, with SK-MEL-5 melanoma, with SW-620 colon and with TK-10 renal was > 100 µM throughout. For the same compound, the TGI with UACC-257 melanoma and with UACC-62 melanoma was > 100 µM in each case.

With `O=C(O)CSc1cc(-c2ccccc2)nc2ccccc12`, the TGI with 786-0 renal is > 100 µM; in the experiment on A498 renal, 67 µM; with HCT-116 colon, 22 µM; in the experiment with HT29 colon, > 100 µM; with MDA-MB-231 breast, > 100 µM; with NCI-H23 lung, > 100 µM. For the same compound, the TGI with RXF 393 renal is 94.8 µM; with SF-295 CNS it was > 100 µM; in the experiment on SK-MEL-5 melanoma it was > 100 µM; in the experiment with SW-620 colon, > 100 µM; in the experiment on TK-10 renal it was > 100 µM; with UACC-257 melanoma, > 100 µM. For the same compound, the TGI in the experiment with UACC-62 melanoma was > 100 µM.

For `C/C(=N\Nc1ccc([N+](=O)[O-])cc1[N+](=O)[O-])c1ccc2ccccc2n1`, the TGI in the experiment with 786-0 renal, in the experiment on HCT-116 colon, in the experiment on HT29 colon, in the experiment with MDA-MB-231 breast, in the experiment with NCI-H23 lung and in the experiment with RPMI-8226 leukemia was > 100 µM in each case. Besides, the TGI in the experiment with RXF 393 renal, in the experiment with SF-295 CNS, with SK-MEL-5 melanoma, in the experiment on SW-620 colon, with TK-10 renal and with UACC-257 melanoma was > 100 µM in each case. In addition, the TGI in the experiment with UACC-62 melanoma was > 100 µM.

For the compound `Cc1cc2[nH]c3c(C#N)c(-c4ccccc4)c(N=Nc4cccc(C(F)(F)F)c4)c(=O)n3c2cc1C`, the TGI in the experiment on 786-0 renal was > 100 µM; with A498 renal, > 100 µM; in the experiment with HCT-116 colon, > 100 µM; with MDA-MB-231 breast, > 100 µM; in the experiment with NCI-H23 lung it was 93.4 µM; in the experiment on RPMI-8226 leukemia, > 100 µM. Besides, the TGI in the experiment with RXF 393 renal is > 100 µM; in the experiment with SF-295 CNS, > 100 µM; in the experiment with SK-MEL-5 melanoma, 51.8 µM; in the experiment on SW-620 colon, > 100 µM; in the experiment with TK-10 renal, > 100 µM; in the experiment with UACC-257 melanoma it was > 100 µM.

For `CN1C(c2ccccc2)=CC(=O)C(O)=C(c2ccccc2)S1(=O)=O`, the TGI in the experiment with 786-0 renal, in the experiment on HCT-116 colon, in the experiment with HT29 colon, with MDA-MB-231 breast, in the experiment with NCI-H23 lung and with RPMI-8226 leukemia was > 100 µM throughout. In addition, the TGI in the experiment on RXF 393 renal, with SF-295 CNS, with SK-MEL-5 melanoma, in the experiment with SW-620 colon, with TK-10 renal and in the experiment on UACC-257 melanoma was > 100 µM each time. Also, the TGI in the experiment on UACC-62 melanoma was > 100 µM.

Regarding `O=C(Cn1nc(Br)c(Br)c1Br)c1ccccc1`, the TGI in the experiment on 786-0 renal is 77.4 µM; with A498 renal, 85.8 µM; in the experiment on HCT-116 colon it was 38.6 µM; in the experiment on HT29 colon, 43.5 µM; in the experiment on MDA-MB-231 breast it was 84.5 µM; in the experiment on NCI-H23 lung it was 94.3 µM. For the same compound, the TGI was 36.4 µM with RXF 393 renal; 91.5 µM in the experiment with SF-295 CNS; 34.5 µM in the experiment with SK-MEL-5 melanoma; > 100 µM with SW-620 colon; 53.1 µM in the experiment on TK-10 renal; 63.5 µM in the experiment on UACC-257 melanoma. In the experiment on UACC-62 melanoma, the TGI was found to be 56.9 µM.

With `CC(C)OP(=O)(CN(C)/C(F)=N\C(F)(F)F)OC(C)C`, the TGI with 786-0 renal, in the experiment with A498 renal, with HCT-116 colon, with HT29 colon, with MDA-MB-231 breast and in the experiment on NCI-H23 lung was > 100 µM each time. In addition, the TGI with RXF 393 renal, in the experiment with SF-295 CNS, in the experiment on SK-MEL-5 melanoma, in the experiment with SW-620 colon, in the experiment on TK-10 renal and in the experiment on UACC-257 melanoma was > 100 µM each time. Also, the TGI in the experiment on UACC-62 melanoma is > 100 µM.

On to `COc1cccc2cc(C(N)=O)c(=N)oc12`, for which the TGI in the experiment on 786-0 renal, with A498 renal, in the experiment on HCT-116 colon, in the experiment with HT29 colon, with MDA-MB-231 breast and with NCI-H23 lung was > 100 µM in each case. Besides, the TGI in the experiment on RPMI-8226 leukemia, in the experiment on RXF 393 renal, with SK-MEL-5 melanoma, in the experiment on SW-620 colon, in the experiment with UACC-257 melanoma and in the experiment on UACC-62 melanoma was > 100 µM in each case.

With `N#CCC(=O)Nn1c(CC#N)nnc1Cc1ccccc1`, the TGI in the experiment with 786-0 renal, in the experiment on HCT-116 colon, in the experiment on HT29 colon, with MDA-MB-231 breast, with NCI-H23 lung and with RPMI-8226 leukemia was > 100 µM each time. For the same compound, the TGI in the experiment with RXF 393 renal, with SF-295 CNS, in the experiment on SK-MEL-5 melanoma, with SW-620 colon, with TK-10 renal and in the experiment with UACC-257 melanoma was > 100 µM in each case. Further, in the experiment with UACC-62 melanoma, the TGI is > 100 µM.

Regarding `O=C(c1cc(Cl)cc(Cl)c1)N(C(=S)OC12CC3CC(CC(C3)C1)C2)c1ccccc1`, the TGI in the experiment with 786-0 renal, with A498 renal, in the experiment with HCT-116 colon, with HT29 colon, in the experiment on MDA-MB-231 breast and in the experiment with NCI-H23 lung was > 100 µM throughout. For the same compound, the TGI with RXF 393 renal, in the experiment with SF-295 CNS, in the experiment with SK-MEL-5 melanoma, with SW-620 colon, in the experiment with TK-10 renal and in the experiment on UACC-257 melanoma was > 100 µM in each case. Moreover, the TGI in the experiment with UACC-62 melanoma was > 100 µM.
